Test results as given in US20050182220A1, “Novel functional norbornenes as initiators for radical polymerization, their polymeric derivatives and a process for producing the same” (priority 2004, published 2005).

Test: Solubility in organic solvents
Format: physicochemical

In the case of `CC(C)(Br)C(=O)NCC1CC2C=CC1C2` (stereo not drawn) [NBTMBr], the “Solubility: completely soluble in (solvents)” value (at 60° C.) was “completely in N,N-dimethylacetamide (DMAc)”, the “Solubility: partially soluble in (solvents)” value (at 60° C.) was “partially in toluene, benzene, hexane and N-methyl-2-pyrrolidinone (NMP)” and the “Solubility: soluble in (solvents)” value (at room temperature) was “soluble in acetone, pyridine, ethanol, methanol, methylene chloride, tetrahydrofuran, N,N-dimethylformamide (DMF) and dimethylsulfoxide (DMSO)”.
